{"source": "patent US20080248511A1", "about": "“METHODS TO QUENCH LIGHT FROM OPTICAL REACTIONS” (priority 2007, published 2008)", "key": {"firefly luciferase [1]": {"target": "T1, firefly luciferase (Photinus pyralis, UniProt P08659)", "T1 sequence (P08659 whole entry)": "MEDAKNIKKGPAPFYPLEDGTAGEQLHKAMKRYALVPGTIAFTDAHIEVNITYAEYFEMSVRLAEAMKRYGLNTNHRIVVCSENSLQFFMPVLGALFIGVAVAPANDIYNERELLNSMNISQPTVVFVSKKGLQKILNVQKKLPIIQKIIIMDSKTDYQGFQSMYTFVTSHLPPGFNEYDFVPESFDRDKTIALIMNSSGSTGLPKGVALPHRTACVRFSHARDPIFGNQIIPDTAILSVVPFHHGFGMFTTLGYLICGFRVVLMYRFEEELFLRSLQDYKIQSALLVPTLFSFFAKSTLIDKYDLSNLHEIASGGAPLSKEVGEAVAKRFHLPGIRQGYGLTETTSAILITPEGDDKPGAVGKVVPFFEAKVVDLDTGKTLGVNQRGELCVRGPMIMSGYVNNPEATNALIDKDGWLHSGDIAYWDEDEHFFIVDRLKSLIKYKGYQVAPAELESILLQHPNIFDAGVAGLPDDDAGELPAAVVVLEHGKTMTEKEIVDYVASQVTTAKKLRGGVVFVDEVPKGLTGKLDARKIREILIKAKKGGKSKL", "assay": "Quaternary ammonium/phosphonium detergent screen, firefly luciferase (Example 5)", "assay_type": "biochemical", "conditions": "final conc. 0.10% detergent; Tergitol NP-9 present; read-out: Retained Firefly Luciferase Luminescence (%)", "protocol": "(§1) Each detergent was added at 0.2% to a reagent solution containing 50 mM Tricine pH 8.3, 3.5 mM MgSO4, 1 mM CDTA, 30 mM thiourea and 0.5% Tergitol NP-9. This solution or one not containing a detergent inhibitor was used to resuspend the Bright-Glo™ luciferin substrate (Promega).\n(§2) The luciferase reactions were initiated by adding 100 μl of the firefly luciferase or Renilla luciferase enzyme solutions to 100 μl of reagent solution. The reactions were performed as described above. […] The detergent concentrations listed refer to the final concentration in the reaction."}, "firefly luciferase [2]": {"target": "T1, firefly luciferase", "assay": "Quaternary ammonium/phosphonium detergent screen, firefly luciferase (Example 5)", "assay_type": "biochemical", "conditions": "final conc. 0.03% detergent; Tergitol NP-9 present; read-out: Retained Firefly Luciferase Luminescence (%)"}, "firefly luciferase [3]": {"target": "T1, firefly luciferase", "assay": "Detergent titration with Tergitol NP-9, digitonin or no lysing agent, firefly luciferase (Example 4)", "assay_type": "biochemical", "conditions": "read-out: Relative Firefly Luc Intensity; for remaining activity at 0.0005 %: 0.0005% detergent; for remaining activity at 0.005 %: 0.0050% detergent; for remaining activity at 0.05 %: 0.0500% detergent", "protocol": "For measurement of firefly luciferase-mediated luminescence, a solution containing 110 mM HEPES pH 7.5, 8 mM MgSO4, 0.05% gelatin, 7.35 ng/ml firefly luciferase (QuantiLum® Luciferase; Promega) and the content of the Steady-Glo Luciferase Substrate (Promega) at the equivalent of 1×, As in the Renilla luciferase reactions, reactions contained either no lysing agent, 0.5% Tergitol NP-9 or 20 μg/ml digitonin. The same detergents were titrated as described above and firefly luciferase-mediated luminescence was measured."}, "firefly luciferase [4]": {"target": "T1, firefly luciferase", "assay": "Detergent screen with Tergitol NP-9, firefly luciferase (Example 3)", "assay_type": "biochemical", "conditions": "0.06% quencher in reagent solution; 0.5% Tergitol NP-9", "protocol": "Unless otherwise specified, materials were obtained from Sigma-Aldrich.\nThe firefly luciferase and Renilla luciferase enzymes were diluted as follows. Firefly luciferase was diluted to 14 ng/ml in Delbecco's Minimal Essential (DMEM) medium (Gibco/Invitrogen) containing 0.1% Prionex®. Renilla luciferase was diluted to 10 ng/ml in DMEM medium containing 0.1% Prionex®.\nThe luciferase reactions were initiated by adding 50 μl of the firefly luciferase or Renilla luciferase enzyme solution to 50 μl of reagent solution. The reactions were performed as described above. The retained firefly luciferase and Renilla luciferase luminescence as well as the selectivity values for each quencher were calculated (Table 3). The values listed are based on 0.06% quencher in the reagent solution."}, "Renilla luciferase [5]": {"target": "T2, Renilla luciferase (Renilla reniformis, UniProt P27652)", "T2 sequence (P27652 1-311)": "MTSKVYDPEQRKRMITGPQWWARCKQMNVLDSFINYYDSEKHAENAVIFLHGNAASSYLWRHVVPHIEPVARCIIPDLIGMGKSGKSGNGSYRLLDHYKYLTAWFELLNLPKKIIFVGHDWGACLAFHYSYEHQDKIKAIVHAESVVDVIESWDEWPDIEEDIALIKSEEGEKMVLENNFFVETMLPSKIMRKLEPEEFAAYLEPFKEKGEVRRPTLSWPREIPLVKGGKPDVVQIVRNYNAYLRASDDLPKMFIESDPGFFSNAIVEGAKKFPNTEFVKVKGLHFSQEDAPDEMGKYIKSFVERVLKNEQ", "assay": "Quaternary ammonium/phosphonium detergent screen, Renilla luciferase (Example 5)", "assay_type": "biochemical", "conditions": "final conc. 0.03% detergent"}, "firefly luciferase [6]": {"target": "T1, firefly luciferase", "assay": "biochemical", "conditions": "0.5% detergent in Luciferase Assay Reagent; read-out: Retained Firefly Luciferase Luminescence (%)", "protocol": "The retained luminescence for each luciferase was calculated by dividing the luminescence in the presence of the detergent by the luminescence in the absence of the test detergent. The selectivity value for each of the test detergents was determined by dividing the retained firefly luciferase luminescence by the retained Renilla luciferase luminescence.\nA set of detergents (Table 2; Sigma-Aldrich) was added at 0.5% (from a 5% or 10% stock solution) to either Luciferase Assay Reagent (Promega) or Renilla Luciferase Assay Reagent (Promega) and allowed to equilibrate at room temperature.\nThe firefly luciferase and Renilla luciferase enzymes were diluted as follows. Firefly luciferase was diluted to 14 ng/ml in Phosphate Buffered Saline (PBS) containing 0.1% of the protein carrier Prionex® (Pentapharm). Renilla luciferase was diluted to 10 ng/ml in 1× Renilla Luciferase Lysis Buffer (Promega) containing 0.1% Prionex®. The Renilla Luciferase Lysis Buffer […] detergent micelles when using the Renilla Luciferase Assay Reagent. In the absence of other detergents, this prevents sequestering of coelenterazine which inhibits Renilla luciferase-mediated luminescence.\nThe luciferase reactions were initiated by adding 40 μl of either the firefly or Renilla luciferase enzyme solution to 200 μl of the appropriate reagent solution (firefly luciferase enzyme solution+firefly luciferase reagent solution or Renilla luciferase enzyme solution+Renilla luciferase reagent solution, respectively). The reactions were performed in an opaque white, 96-well plate and luminescence was measured for 0.5 seconds per well using a Turner BioSystems Veritas™ Microplate luminometer. The retained firefly luciferase and Renilla luciferase luminescence, as well as the selectivity values for each detergent, were calculated (Table 2)."}, "Renilla luciferase [7]": {"target": "T2, Renilla luciferase", "assay": "Quaternary ammonium/phosphonium detergent screen, Renilla luciferase (Example 5)", "assay_type": "biochemical", "conditions": "final conc. 0.10% detergent", "protocol": "as §1, §2"}, "[8]": {"conditions": "Tergitol NP-9 present, read-out: Retained Renilla Luciferase Luminescence (%)"}}, "note": "Read-outs that look alike come from different tables or passages of the source.", "data": [{"smiles": "CCCCCCCCCCCC[N+](C)(C)Cc1ccccc1.[Br-]", "note": "[Benzyldimethyldodecylammonium bromide]", "values": [{"measurement": "remaining activity at 0.1 %", "setting": "firefly luciferase [1]", "value": 97, "unit": "%"}, {"measurement": "remaining activity at 0.03 %", "setting": "firefly luciferase [2]", "value": 100, "unit": "%"}, {"measurement": "remaining activity at 0.0005 %", "setting": "firefly luciferase [3]; Dig", "value": 111, "unit": "%"}, {"measurement": "remaining activity at 0.0005 %", "setting": "firefly luciferase [3]; Terg", "value": 96, "unit": "%"}, {"measurement": "remaining activity at 0.0005 %", "setting": "firefly luciferase [3]; Water", "value": 116, "unit": "%"}, {"measurement": "remaining activity at 0.005 %", "setting": "firefly luciferase [3]; Dig", "value": 139, "unit": "%"}, {"measurement": "remaining activity at 0.005 %", "setting": "firefly luciferase [3]; Terg", "value": 101, "unit": "%"}, {"measurement": "remaining activity at 0.005 %", "setting": "firefly luciferase [3]; Water", "value": 155, "unit": "%"}, {"measurement": "remaining activity at 0.05 %", "setting": "firefly luciferase [3]; Dig (20 μg/ml digitonin)", "value": 37, "unit": "%"}, {"measurement": "remaining activity at 0.05 %", "setting": "firefly luciferase [3]; Terg (0.5% Tergitol NP-9)", "value": 50, "unit": "%"}, {"measurement": "remaining activity at 0.05 %", "setting": "firefly luciferase [3]; Water (no lysing agent)", "value": 79, "unit": "%"}, {"measurement": "Retained Firefly Luminescence (%)", "setting": "firefly luciferase [4]", "value": 119, "unit": "%"}, {"measurement": "Selectivity Value", "setting": "Renilla luciferase [5]", "value": 4}, {"measurement": "remaining activity at 0.03 %", "setting": "Renilla luciferase [5]; [8]", "value": 25, "unit": "%"}, {"measurement": "remaining activity at 0.5 %", "setting": "firefly luciferase [6]", "value": 20.7, "unit": "%"}, {"measurement": "Selectivity Value", "setting": "Renilla luciferase [7]", "value": 48.5}, {"measurement": "remaining activity at 0.1 %", "setting": "Renilla luciferase [7]; [8]", "value": 2, "unit": "%"}]}]}
